Assay results from US8729047B2, “Compositions for inhibiting redox-sensitive GTPases” (Board of Regents, The University of Texas System, priority 2010, dated 2014).

Columns and labels:
[1] = target: T1, RhoC (Homo sapiens, UniProt P08134); experiment: Redox agent-mediated GDP dissociation (FIG. 16B); type: biochemical; parameters: made in house; host or cells: E. coli; details: [3H]GDP-loaded RhoC 1 μM, redox agent ~3 μM, free GDP 10 μM, anaerobic
Description: (§1) FIG. 16. Kinetic properties of RhoC with 6-TGDP in the presence or absence of a redox agent. All kinetic analyses are described elsewhere herein. (A) ^appKD values of Rac1, RhoA, RhoC, and RhoC C20S for 6-TGDP were estimated to be 7.9, 11.6, 11.8, and 11.2 μM, respectively. ^trueKD values of Rac1, RhoA, […] for 6-TGDP were then calculated to be 5.1, 10.8, 11.1, and 10.5 μM, respectively, by using a compensation equation, ^trueKD for 6-TGDP=^appKD for 6-TGDP/(1+[[^3H]GDP]/^trueKD for GDP) (Heo, J., and Hong, I. (2010) Biochemistry 49, 3965-3976), in conjunction with the values given. […] The GDP dissociation rates from RhoC C20S by NO, .NO2, and N2O3 were estimated to be 0.02×10^−3, 0.05×10^−3, and 0.04×10^−3 s^−1, respectively. […] (D) ^appKD values of RhoC for [^3H]GDP in the presence or absence of DTT were estimated to be 22.4 μM and […], respectively. ^appKD values of C20S RhoC for [^3H]GDP in the presence or absence of DTT were determined to be 24.8 μM and 25.2 μM, respectively. The regression values associated with these fits were >0.8595. All data points associated with vertical standard error bars shown in this figure are the mean values of triplicate measurements.
(§2) Transition metal-free assay buffer and vials as described in a previous study (Heo et al. Biochemistry 49, 3965-3976 (2010)) were used for all kinetic assays. The kinetic assay buffer contains the highest grade of 50 mM NaCl, 10 mM MgCl2, 1 mM EDTA, and 0.1 mM DTPA in 50 mM TrisHCl (pH 7.4). Before performance of any of the assays, all protein samples also were dialyzed with a metal-free buffer under anaerobic conditions. As with RhoA and Rac1 (Heo et al. J. Biol. Chem. 280, 31003-31010 (2005)), C20S RhoC were expressed in E. coli and purified using anionic and size exclusion columns.
(§3) (b) The effect of redox agents such as NO, .NO2, and N2O3 on the binding interaction between RhoC proteins and GDP or 6-TGDP was examined under N2-filled serum-stoppered anaerobic experimental conditions (O2<3 ppm). These anaerobic experimental conditions were necessary to block the reaction of NO or .NO2 with O2 to produce higher oxides. The contents of NO and .NO2, respectively, in the sealed assay vials were determined by using a hemoglobin assay and NO2^−/NO3^− Assay Kit-C II (Dojindo) under anaerobic conditions (Heo et al. J. Biol. Chem. 280, 31003-31010 (2005); Heo et al. Biochemistry 43, 2314-2322 (2004)). N2O3 was generated by mixing NO and .NO2 1:1 stoichiometrically. […] The fraction of the redox agent-mediated release of the bound [^3H]GDP per Rho protein over time was determined as noted above, and the result was plotted against time. The rates of RhoC GDP dissociation in the presence of redox agents were determined by using Prism software to fit the result to a one-phase exponential decay.

[2] = target: T2, RhoC C20S (Homo sapiens, UniProt P08134, C20S); experiment: Redox agent-mediated GDP dissociation (FIG. 16B); type: biochemical; parameters: made in house; host or cells: E. coli; details: [3H]GDP-loaded protein 1 μM, redox agent ~3 μM, free GDP 10 μM, anaerobic
T2 sequence (P08134 whole entry C20S): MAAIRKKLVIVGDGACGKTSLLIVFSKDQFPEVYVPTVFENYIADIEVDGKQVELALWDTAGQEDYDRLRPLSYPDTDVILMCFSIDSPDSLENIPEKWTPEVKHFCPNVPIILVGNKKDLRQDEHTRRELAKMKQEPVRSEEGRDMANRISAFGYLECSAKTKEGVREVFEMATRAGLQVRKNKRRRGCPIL
Description: as §1, §2, §3

[3] = target: T1, RhoC; experiment: Redox agent-mediated 6-TGDP dissociation (FIG. 16C); type: biochemical; parameters: made in house; host or cells: E. coli; details: 6-TGDP-loaded RhoC treated with redox agent, free [3H]GDP 10 μM
Description: as §1, §2
(§4) (c) To test the Rho 6-TGDP-binding interaction in the presence of redox agents, the 6-TGDP-loaded RhoC protein was treated with redox agents in the presence of free […] (10 μM). An association of RhoC protein with [^3H]GDP to produce a RhoC-[^3H]GDP complex will occur proportionally after RhoC releases 6-TGDP through the action of redox agents. Therefore, the fraction of the redox agent-mediated release of the bound 6-TGDP per Rho protein over time can be deduced by determination of the RhoC-bound [^3H]GDP, where the quantity of RhoC-bound 6-TGDP equals 1 minus the determined fraction of the RhoC-bound [^3H]GDP as described in Section (b). The estimated data associated with the quantity of RhoC-bound 6-TGDP then was fitted to a one-phase exponential decay; Prism software was used to derive the rate of 6-TGDP dissociation from RhoC.

[4] = target: T2, RhoC C20S; experiment: as above; type: biochemical; parameters: made in house; host or cells: E. coli; details: 6-TGDP-loaded RhoC C20S treated with redox agent, free [3H]GDP 10 μM
Description: as §1, §2, §4

[5] = tested on: HME-RhoC cells; experiment: Apoptosis / cell population of cells treated with thiopurines; type: cell-based, human; details: not shown
[6] = tested on: HME-RhoC cells; experiment: Matrigel invasion (cell motility) assay; type: cell-based, human; details: NO donor alone 10 μM, three days continuous; FIG. 14A
Description: FIG. 5. Determination of cell invasiveness in the presence and absence of 6-thiopurine and/or a redox agent. The top chamber of a Transwell filter (6.5 mm with 8 μm pores, Costar; Corning, N.Y.) was coated with a 10 μL aliquot of 10 mg/mL Matrigel (BD Biosciences, Bedford Mass.), and the lower chamber of the Transwell was filled with either serum-free or serum-containing media. Sample cells (e.g., 6-TG-resistant HME-RhoC cells) were prepared to resuspend cells in a serum-free medium with 0.1% BSA at a concentration of 4×10^5 cells/mL. At this point, neither 6-thiopurine nor GSNO were added to the cells. The sample cells (0.5 mL) were added to the top chamber of a Transwell filter and were incubated for 24 h at 37° C. in a 10% CO2 incubator. The Transwell filters were fixed with methanol, stained with H&E, and cells in the serum-containing samples were counted. The number of cells that had invaded the serum-free medium-containing lower chambers was used as a control background. Results are given as percent invasion over that seen in HME-RhoC cells (100%) and represent mean and standard error values from triplicate measurements.
FIG. 11. Determination of cell invasiveness in the presence and absence of […] and/or a redox agent. […] The number of cells that had invaded the serum-free medium-containing lower chambers was used as a control background. Results are given as percent invasion over that seen in HME-RhoC cells (100%) and represent mean and standard error values from triplicate measurements.
(§5) FIG. 14. Determination of cell invasiveness in the presence and absence of thiopurines and/or redox agents. […] Western blot analysis representing the total expression of RhoC in these cells also is shown. (B) Experimental procedures for the determination of the time-dependent motility of cells using the QCM Cell Invasion Assay kit in the presence and absence of 6-TG and DETA/NO are described elsewhere herein.
(§6) The top chamber of a Transwell filter (6.5 mm with 8 μm pores, Costar; Corning, N.Y.) was coated with a 10 μL aliquot of 10 mg/mL Matrigel, and the lower chamber of the Transwell was filled with either serum-free or serum-containing media. Sample cells were prepared to resuspend cells in a serum-free medium with 0.1% BSA at a concentration of 4×10^5 cells/mL. […] The Transwell filters were fixed with methanol, stained with haematoxylin and eosin, and cells in the serum-containing samples were counted. The number of cells that had invaded the serum-free, medium-containing lower chambers was used as a control background.

[7] = tested on: HME-C20S RhoC cells; experiment: Matrigel invasion (cell motility) assay; type: cell-based, human; details: NO donor alone 10 μM, three days continuous; FIG. 14A
Source text: as §5, §6

[8] = tested on: SUM149 cells; experiment: Matrigel invasion (cell motility) assay; type: cell-based, human; details: NO donor alone 10 μM, three days continuous; FIG. 14A
Source text: as §5, §6

[9] = target: T2, RhoC C20S; experiment: RhoC expression (Western) and RhoC activity assay in cells; type: cell-based; parameters: expressed in transfected cells; host or cells: human mammary epithelial (HME) cells; details: HME-C20S RhoC cells, NO donor alone, three days
Description: as §5
(§7) Cells were lysed in an extraction buffer containing 50 mM NaCl, 5 mM MgCl2, 1 mM ethylenediaminetetraacetic acid (EDTA), 0.1 mM diethylenetriaminepentaacetic acid (DTPA), and 0.1% NP40 in 150 mM TrisHCl (pH 8.0). The content of […] RhoC in cells then was determined by using Western analysis that relies on a monoclonal anti-RhoC antibody (Biocompare, South San Francisco, Calif.). To determine RhoC activity, the colorimetric RhoA activation assay Biochem Kit (Cytoskeleton, Denver, Colo.) was used essentially as described in the previous study (Hall et al. Neoplasia 10, 797-803 (2008)) except that the RhoC specific antibody (vide supra), instead of the RhoA antibody included in the assay kit, was used for this analysis.

[10] = target: T1, RhoC; experiment: as above; type: cell-based; parameters: endogenous in cells; host or cells: SUM149, SUM102, SW480, HCCLM3 (endogenous); HME-RhoC (transfected with wild type RhoC); details: SUM149 and HME-RhoC cells, NO donor alone, three days
Description: as §5, §7

T1 sequence (P08134 whole entry): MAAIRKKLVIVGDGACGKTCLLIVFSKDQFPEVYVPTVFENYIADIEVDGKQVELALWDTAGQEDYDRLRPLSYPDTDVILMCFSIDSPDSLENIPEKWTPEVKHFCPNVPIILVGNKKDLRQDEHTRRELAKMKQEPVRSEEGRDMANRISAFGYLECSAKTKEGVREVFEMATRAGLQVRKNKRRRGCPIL

SMILES	rate of GDP dissociation [1]	rate of GDP dissociation [2]	rate of 6-TGDP dissociation [3]	rate of 6-TGDP dissociation [4]	cell population with other 6-TG analogs [5]	also measured
[N]=O [NO, nitric oxide]	0.00019 s⁻¹	2e-05 s⁻¹	8e-05 s⁻¹	4e-05 s⁻¹	–	–
Sc1ncnc2nc[nH]c12 [6-MP, 6-mercaptopurine]	–	–	–	–	decrease in the cell population	–
[O]N=O [.NO2, nitrogen dioxide]	0.00604 s⁻¹	5e-05 s⁻¹	0.00265 s⁻¹	0.00627 s⁻¹	–	–
N[C@@H](CCC(=O)N[C@@H](CSN=O)C(=O)NCC(=O)O)C(=O)O [GSNO, S-Nitrosoglutathione]	–	–	–	–	–	effect on invasive cell motility [6]: minimal; effect on invasive cell motility [7]: minimal; effect on invasive cell motility [8]: minimal; effect on RhoC activity [9]: minimal; effect on RhoC activity [10]: minimal
Cn1cnc([N+](=O)[O-])c1Sc1ncnc2nc[nH]c12 [AZA, azathioprine]	–	–	–	–	decrease in the cell population	–
